Reference: US20190031618A1, “BENZIMIDAZOLE DERIVATIVES USEFUL AS CB-1 INVERSE AGONISTS” (Janssen Pharmaceutica NV, priority 2015, published 2019)
Read-outs that look alike come from different tables or passages of the source.

Columns and labels:
[1] = Mouse Fast PK/BBB: plasma and brain concentration; type: in vivo, Male C57bl/6j mice; conditions: mice; for concentration at 4 h / concentration at 1 h: male, C57bl/6j, mouse; for concentration at 4 h / Brain Mean Conc. ± Std. Dev: 4 hr
Experimental: Male Sprague Dawley rats are ordered from Charles River (225-250 gm upon arrival). They are fed standard chow diet (Purina 5001) and housed 2 per cage. Male C57bl/6j mice are ordered from Charles River at 22-25 g and housed 3 per cage. They are fed standard chow (Purina 5001). All animals are housed in a temperature-controlled room with 12-hour light/dark cycle. Animals are given food and water ad libitum, except as noted.
Test compounds are administered by oral gavage (5 ml kg^−1 or 10 ml kg^−1).
Male C57bl/6j mice were dosed with test compounds at 20 or 30 mg/kg. Plasma was collected via retro-orbital bleeding at 1 hr and 4 hrs after dosing. Whole brain without cerebellum was collected at 4 hrs after dosing. Wet brain weight was recorded before freezing. Brains were homogenized in saline and sent for analysis for determination of concentration of test compound.
Representative compounds of formula (I) of the present invention were tested according to the procedure described above, with results as listed in Table BIO-2 below.

[2] = Mouse Fast PK/BBB: plasma and brain concentration; type: in vivo, Male C57bl/6j mice; conditions: mice; for concentration at 1 h: male, C57bl/6j, mouse, brain, read-out: Brain Mean Conc. ± Std. Dev; for Brain Mean Conc. ± Std. Dev: 1 hr
[3] = molecular target: Human CB2R (Cannabinoid receptor 2) (Homo sapiens, UniProt P34972); experiment: CB-2 in vitro cAMP (HTRF) assay; type: cell-based; conditions: HEK cells, cAMP HTRF, 250 nM forskolin; mean where tested more than once; read-out: CB2 HEK_cAMP EC50
Human CB2R (Cannabinoid receptor 2), sequence (P34972 whole entry): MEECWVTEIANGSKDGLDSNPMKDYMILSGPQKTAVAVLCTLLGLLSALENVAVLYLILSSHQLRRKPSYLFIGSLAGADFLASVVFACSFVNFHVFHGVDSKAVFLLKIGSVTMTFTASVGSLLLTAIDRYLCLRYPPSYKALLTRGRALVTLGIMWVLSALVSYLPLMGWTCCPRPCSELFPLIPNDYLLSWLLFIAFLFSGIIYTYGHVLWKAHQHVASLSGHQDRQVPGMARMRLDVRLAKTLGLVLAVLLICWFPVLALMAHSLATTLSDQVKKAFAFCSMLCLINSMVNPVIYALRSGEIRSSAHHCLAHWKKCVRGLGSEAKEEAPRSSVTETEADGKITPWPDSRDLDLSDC
Procedure, shortened: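 Competitive HTRF read-out (d2-labelled cAMP vs cryptate antibody) quantifies cAMP in stably transfected HEK-293 cells, seeded the day before at 4E5 cells/mL. Stimulation buffer: HBSS, 5 mM HEPES, 0.1% BSA, 0.5 mM IBMX; forskolin prepared at 1.5 μM in buffer; compounds serially diluted 1/3 in DMSO.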

[4] = brain (whole brain without cerebellum), dose 30 mg/kg oral, read-out: Brain Mean Conc. ± Std. Dev
[5] = plasma, dose 30 mg/kg oral, read-out: Plasma Mean Conc. ± Std. Dev
[6] = plasma, dose 20 mg/kg oral, read-out: Plasma Mean Conc. ± Std. Dev
[7] = brain (whole brain without cerebellum), dose 20 mg/kg oral, read-out: Brain Mean Conc. ± Std. Dev

| SMILES | EC50 [3] | concentration at 1 h [1, 6] | concentration at 4 h [1, 6] | Brain Mean Conc. ± Std. Dev ([1]; dose 20 mg/kg oral) | Brain Mean Conc. ± Std. Dev ([2]; dose 20 mg/kg oral) | concentration at 4 h [1, 7] | concentration at 1 h ([2]; dose 20 mg/kg oral) | concentration at 4 h [1, 4] | concentration at 1 h [1, 5] | concentration at 4 h [1, 5] | concentration at 1 h ([2]; dose 30 mg/kg oral) | Brain Mean Conc. ± Std. Dev ([1]; dose 30 mg/kg oral) | Brain Mean Conc. ± Std. Dev ([2]; dose 30 mg/kg oral) |
| --- | --- | --- | --- | --- | --- | --- | --- | --- | --- | --- | --- | --- | --- |
| O=C(O)c1cc(F)cc(CN2CCC(n3c(C4CC4)nc4ccc(C(c5ccc(Cl)cc5)c5ccc(Cl)cc5)cc43)CC2)c1 [Example 89] | 7.9 µM |  |  |  |  |  |  | 129 ± 33.2 ng/mL | 7190 ± 488 ng/mL | 4430 ± 227 ng/mL | 92.6 ± 20.4 ng/mL |  |  |
| O=C(O)c1ccc(F)c(CN2CCC(n3c(C4CC4)nc4ccc(C(c5ccc(Cl)cc5)c5ccc(Cl)cc5)cc43)CC2)c1 [Example 92] | 5.19 µM |  |  |  |  |  |  | 89.2 ± 27.7 ng/mL | 11400 ± 2020 ng/mL | 5190 ± 277 ng/mL | 72.4 ± 11.1 ng/mL |  |  |
| O=C(O)c1ccc(CN2CCC(n3c(C4CC4)nc4ccc(C(c5ccc(Cl)cc5)c5ccc(Cl)cc5)cc43)CC2)nc1 [Example 124] | > 10 µM |  |  |  |  |  |  |  | 2020 ± 555 ng/mL | 297 ± 107 ng/mL |  | BLOQ ± NA | BLOQ ± NA |
| O=C(O)c1cccc(CN2CCC(n3c(C4CC4)nc4ccc(C(c5ccc(Cl)cc5)c5ccc(Cl)cc5)cc43)CC2)n1 [Example 125] | 9.9 µM |  |  |  |  |  |  |  | 4490 ± 1010 ng/mL | 390 ± 157 ng/mL |  | BLOQ ± NA | BLOQ ± NA |
| O=C(O)c1ccc(CN2CCC(n3c(C4CC4)nc4ccc(C(c5ccc(Cl)cc5)c5ccc(Cl)cc5)cc43)CC2)o1 [Example 129] | > 10 µM |  |  |  |  |  |  |  | 1370 ± 749 ng/mL | 84.6 ± 62.9 ng/mL |  | BLOQ ± NA | BLOQ ± NA |
| O=C(O)c1cccc(CN2CCC(n3c(C4CC4)nc4ccc(C(c5ccc(Cl)cc5)c5ccc(Cl)cc5)cc43)CC2)c1 [Example 148] | 4.93 µM |  |  |  |  |  |  | 417 ± 50 ng/mL | 13500 ± 273 ng/mL | 7750 ± 3100 ng/mL | 334 ± 108 ng/mL |  |  |
| O=C(O)c1csc(S(=O)(=O)N2CCC(n3c(C4CC4)nc4ccc(C(c5ccc(Cl)cc5)c5ccc(Cl)cc5)cc43)CC2)c1 [Example 221] | 3.3 µM | 160 ± 69.7 ng/mL | 33.8 ± 11.2 ng/mL | BLOQ ± NA | BLOQ ± NA |  |  |  |  |  |  |  |  |
| O=C(O)c1ccc(S(=O)(=O)N2CCC(n3c(C4CC4)nc4ccc(C(c5ccc(Cl)cc5)c5ccc(Cl)cc5)cc43)CC2)o1 [Example 232] | 8.86 µM |  |  |  |  |  |  |  | 81.9 ± 22.7 ng/mL | 7.11 ± 6.55 ng/mL |  | BLOQ ± NA | BLOQ ± NA |
| O=C(O)c1cccc(S(=O)(=O)N2CCC(n3c(C4CC4)nc4ccc(C(c5ccc(Cl)cc5)c5ccc(Cl)cc5)cc43)CC2)c1 [Example 242] | 5.69 µM | 789 ng/mL | 62.1 ± 20 ng/mL | BLOQ ± NA | BLOQ ± NA |  |  |  |  |  |  |  |  |
| O=S(=O)(N1CCC(Cn2c(C3CC3)nc3ccc(C(c4ccc(Cl)cc4)c4ccc(Cl)cc4)cc32)CC1)C(F)(F)F [Example 316] | 3.86 µM | 3980 ± 448 ng/mL | 247 ± 36 ng/mL |  |  | 30.2 ± 5.2 ng/mL | 22.9 ± 2.7 ng/mL |  |  |  |  |  |  |
| CCc1nc2ccc(C(c3ccc(Cl)cc3)c3ccc(Cl)cc3)cc2n1C1CCN(S(=O)(=O)C(F)(F)F)CC1 [Example 328] | > 14 µM | 2640 ± 337 ng/mL | 1600 ± 109 ng/mL |  |  | 99.3 ± 13.3 ng/mL | 39.1 ± 1.95 ng/mL |  |  |  |  |  |  |

The next lines start with results.

| EC50 [3] | concentration at 1 h [1, 6] | concentration at 4 h [1, 6] | Brain Mean Conc. ± Std. Dev ([1]; dose 20 mg/kg oral) | Brain Mean Conc. ± Std. Dev ([2]; dose 20 mg/kg oral) | concentration at 4 h [1, 7] | concentration at 1 h ([2]; dose 20 mg/kg oral) | SMILES | concentration at 4 h [1, 4] | concentration at 1 h [1, 5] | concentration at 4 h [1, 5] | concentration at 1 h ([2]; dose 30 mg/kg oral) | Brain Mean Conc. ± Std. Dev ([1]; dose 30 mg/kg oral) | Brain Mean Conc. ± Std. Dev ([2]; dose 30 mg/kg oral) |
| --- | --- | --- | --- | --- | --- | --- | --- | --- | --- | --- | --- | --- | --- |
| > 10 µM | 1420 ± 489 ng/mL | 436 ± 83 ng/mL | BLOQ ± NA | BLOQ ± NA |  |  | O=S(=O)(c1cccc(O)c1)N1CCC(n2c(C3CC3)nc3ccc(C(c4ccc(Cl)cc4)c4ccc(Cl)cc4)cc32)CC1 [Example 259] |  |  |  |  |  |  |
| 2.61 µM | 227 ± 67.2 ng/mL | 27.7 ± 13.1 ng/mL | BLOQ ± NA | BLOQ ± NA |  |  | O=C(O)c1ccc(S(=O)(=O)N2CCC(n3c(C4CC4)nc4ccc(C(c5ccc(Cl)cc5)c5ccc(Cl)cc5)cc43)CC2)cc1 [Example 276] |  |  |  |  |  |  |
| 5.4 µM | 2870 ± 441 ng/mL | 785 ± 191 ng/mL |  |  | 48.4 ± 0.4 ng/mL | 33.8 ± 5 ng/mL | CCc1nc2ccc(C(c3ccc(Cl)cc3)c3ccc(Cl)cc3)cc2n1CC1CCN(S(=O)(=O)C(F)(F)F)CC1 [Example 315] |  |  |  |  |  |  |
| > 10 µM | 5880 ± 1290 ng/mL | 2130 ± 245 ng/mL |  |  | 69.4 ± 4.4 ng/mL | 57.8 ± 14.8 ng/mL | O=S(=O)(N1CCC(n2c(C3CCC3)nc3ccc(C(c4ccc(Cl)cc4)c4ccc(Cl)cc4)cc32)CC1)C(F)(F)F [Example 318] |  |  |  |  |  |  |
| > 10 µM | 2900 ± 245 ng/mL | 1610 ± 207 ng/mL |  |  | 167 ± 9.4 ng/mL | 122 ± 18.1 ng/mL | COc1ccc(C(c2ccc(OC)cc2)c2ccc3nc(C4CCC4)n(C4CCN(S(=O)(=O)C(F)(F)F)CC4)c3c2)cc1 [Example 320] |  |  |  |  |  |  |
| > 10 µM | 3940 ± 480 ng/mL | 2260 ± 822 ng/mL |  |  | 104 ± 19 ng/mL | 53.3 ± 14 ng/mL | O=S(=O)(N1CCC(n2c(C3CC3)nc3ccc(C(c4ccc(Cl)cc4)c4ccc(Cl)cc4)cc32)CC1)C(F)(F)F [Example 335] |  |  |  |  |  |  |
| > 10 µM | 1550 ± 65.7 ng/mL | 947 ± 191 ng/mL |  |  | 292 ± 61 ng/mL | 362 ± 36.9 ng/mL | CCc1nc2ccc(C(c3ccc(Cl)cc3)c3nccs3)cc2n1C1CCN(S(=O)(=O)C(F)(F)F)CC1 (stereo not drawn) [Example 400] |  |  |  |  |  |  |
